MIC data for 7 molecules are collected here from US20240425464A1, “Substituted Monohydrazides as Potent Antifungal Agents” (University of Kentucky Research Foundation, priority 2023, published 2024).

Values after ≈ are worked out from the molar mass of the structure shown. Read-outs that look alike come from different tables or passages of the source.

Holding throughout (assay): MIC determination by in vitro antifungal assay
Assay type in all cases: cell-based, Candida auris

Experiment [1] concerns C. auris strain AR Bank #390 (L). In a few lines: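 Compounds serially double-diluted over 0.06-31.3 µg/mL against yeast inoculum set at OD600 0.12 (~1×10^6 CFU/mL) and diluted 1:100. Medium RPMI 1640 with 0.165 M MOPS, pH 7.0; growth at 35° C.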
The test system of the next experiment is C. auris AR Bank #381. In a few lines:
(§1)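 Inocula were prepared by adjusting actively growing yeast cultures in RPMI 1640 to an OD600 of 0.12, about 1×10^6 CFU/mL, and diluting this suspension 1:100. Cultivation was at 35° C in MOPS-buffered (0.165 M, pH 7.0) RPMI 1640.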

The next experiment deals with C. auris AR Bank #387. In outline: as §1
The test system of another experiment is C. auris AR Bank #382. In outline:
as §1

For the next experiment, the system named is C. auris AR Bank #389. In outline:
as §1

In another experiment the test system is C. auris AR Bank #383. In a few lines:
as §1

The test system of another experiment is C. auris AR Bank #388. In outline: as §1
For a further experiment, the system named is C. auris AR Bank #385. In a few lines: as §1
A further experiment concerns C. auris AR Bank #386. In a few lines:
as §1

Setting [2] is: Candidozyma auris, C. auris AR Bank # 390 (L) (Table 2B), read-out: MIC.
Setting [3] is: Candidozyma auris, strain L = C. auris AR Bank # 0390 (Tables 1A/1B), read-out: MIC.
Setting [4] is: Candidozyma auris, C. auris AR Bank # 381 (Table 2B), read-out: MIC.
[5] abbreviates: Candidozyma auris, C. auris AR Bank # 387 (Table 2B), read-out: MIC.
The mark [6] stands for this setting: Candidozyma auris, C. auris AR Bank # 382 (Table 2B), read-out: MIC.
[7] abbreviates: Candidozyma auris, C. auris AR Bank # 389 (Table 2B), read-out: MIC.
[8] abbreviates: Candidozyma auris, C. auris AR Bank # 383 (Table 2B), read-out: MIC.
[9] abbreviates: Candidozyma auris, C. auris AR Bank # 388 (Table 2B), read-out: MIC.
The mark [10] stands for this setting: Candidozyma auris, C. auris AR Bank # 385 (Table 2B), read-out: MIC.
The mark [11] stands for this setting: Candidozyma auris, C. auris AR Bank # 386 (Table 2B), read-out: MIC.
Where [12] appears, read: strain L = C. auris AR Bank # 0390 (Tables 1A/1B).

Turning to `O=C(NNc1ccc(F)cc1F)c1nc(F)ccc1F` [Compound 8g], the MIC came out at 31.3 µg/mL (≈ 110 µM) in [1] (setting [2]); 1.95 µg/mL (≈ 6.84 µM) in experiment [1] (setting [3]); 1.95 µg/mL (≈ 6.84 µM) with C. auris AR Bank #381 (setting [4]); 0.98 µg/mL (≈ 3.44 µM) in the experiment on C. auris AR Bank #387 (setting [5]); 1.95 µg/mL (≈ 6.84 µM) in the experiment on C. auris AR Bank #382 (setting [6]); 1.95 µg/mL (≈ 6.84 µM) in the experiment on C. auris AR Bank #389 (setting [7]). Also, the MIC was 1.95 µg/mL (≈ 6.84 µM) in the experiment on C. auris AR Bank #383 (setting [8]), 0.98 µg/mL (≈ 3.44 µM) with C. auris AR Bank #388 (setting [9]), 0.49 µg/mL (≈ 1.72 µM) in the experiment with C. auris AR Bank #385 (setting [10]) and 1.95 µg/mL (≈ 6.84 µM) in the experiment on C. auris AR Bank #386 (setting [11]).

For the molecule `COc1ccc(NNC(=O)c2ccccn2)cc1` [Compound 2f], the MIC is 0.12 µg/mL (≈ 0.493 µM) in [1] (Candidozyma auris, C. auris AR Bank #390 (L), read-out: MIC); 0.12 µg/mL (≈ 0.493 µM) in experiment [1] (setting [3]); 1.95 µg/mL (≈ 8.02 µM) in the experiment with C. auris AR Bank #381 (Candidozyma auris, C. auris AR Bank #381, read-out: MIC); 0.49 µg/mL (≈ 2.01 µM) with C. auris AR Bank #387 (Candidozyma auris, C. auris AR Bank #387, read-out: MIC); 1.95 µg/mL (≈ 8.02 µM) in the experiment with C. auris AR Bank #382 (Candidozyma auris, C. auris AR Bank #382, read-out: MIC); 0.24 µg/mL (≈ 0.987 µM) with C. auris AR Bank #389 (Candidozyma auris, C. auris AR Bank #389, read-out: MIC). Moreover, the MIC with C. auris AR Bank #383 (Candidozyma auris, C. auris AR Bank #383, read-out: MIC) is 1.95 µg/mL (≈ 8.02 µM); with C. auris AR Bank #388 (Candidozyma auris, C. auris AR Bank #388, read-out: MIC), 0.49 µg/mL (≈ 2.01 µM); in the experiment on C. auris AR Bank #385 (Candidozyma auris, C. auris AR Bank #385, read-out: MIC) it was 0.98 µg/mL (≈ 4.03 µM); in the experiment with C. auris AR Bank #386 (Candidozyma auris, C. auris AR Bank #386, read-out: MIC) it was 0.24 µg/mL (≈ 0.987 µM).

Consider `O=C(NNc1ccc(F)cc1)c1ncc(F)cc1F` [Compound 7d], for which the MIC in [1] (setting [2]) was found to be 3.9 µg/mL (≈ 14.6 µM); in [1] (setting [3]), 0.98 µg/mL (≈ 3.67 µM); with C. auris AR Bank #381 (setting [4]), 1.95 µg/mL (≈ 7.3 µM); with C. auris AR Bank #387 (setting [5]), 0.49 µg/mL (≈ 1.83 µM); with C. auris AR Bank #382 (setting [6]), 0.98 µg/mL (≈ 3.67 µM); in the experiment on C. auris AR Bank #389 (setting [7]), 1.95 µg/mL (≈ 7.3 µM). For the same molecule, the MIC with C. auris AR Bank #383 (setting [8]) was 1.95 µg/mL (≈ 7.3 µM); with C. auris AR Bank #388 (setting [9]), 0.49 µg/mL (≈ 1.83 µM); with C. auris AR Bank #385 (setting [10]), 0.49 µg/mL (≈ 1.83 µM); with C. auris AR Bank #386 (setting [11]), 0.98 µg/mL (≈ 3.67 µM).

With `COc1ccc(NNC(=O)c2ncc(F)cc2F)cc1` [Compound 7f], the MIC in experiment [1] (setting [2]) was found to be 31.3 µg/mL (≈ 112 µM); in experiment [1] (setting [3]) it was 0.98 µg/mL (≈ 3.51 µM); in the experiment with C. auris AR Bank #381 (setting [4]) it was 0.98 µg/mL (≈ 3.51 µM); in the experiment with C. auris AR Bank #387 (setting [5]) it was 0.98 µg/mL (≈ 3.51 µM); in the experiment on C. auris AR Bank #382 (setting [6]), 0.98 µg/mL (≈ 3.51 µM); in the experiment on C. auris AR Bank #389 (setting [7]) it was 0.98 µg/mL (≈ 3.51 µM). Further, the MIC in the experiment with C. auris AR Bank #383 (setting [8]) was 0.98 µg/mL (≈ 3.51 µM); in the experiment with C. auris AR Bank #388 (setting [9]) it was 0.98 µg/mL (≈ 3.51 µM); in the experiment on C. auris AR Bank #385 (setting [10]), 0.49 µg/mL (≈ 1.75 µM); in the experiment with C. auris AR Bank #386 (setting [11]), 0.98 µg/mL (≈ 3.51 µM).

As for `C[C@@H]1[C@H](O)[C@@H](C)/C=C/C=C/C=C/C=C/C=C/C=C/C=C/[C@H](O[C@@H]2O[C@H](C)[C@@H](O)[C@H](N)[C@@H]2O)C[C@@H]2O[C@](O)(C[C@@H](O)C[C@@H](O)[C@H](O)CC[C@@H](O)C[C@@H](O)CC(=O)O[C@H]1C)C[C@H](O)[C@H]2C(=O)O` [AmB, amphotericin B, reference compound], the MIC in [1] (C. auris AR Bank #390 (L)) is recorded as 1.95 μg/mL^−1; in experiment [1] (C. auris AR Bank # 390 (L) (Table 2B)), 1.95 μg/mL^−1; in [1] (setting [12]) it was 1.95 μg/mL^−1; in the experiment on C. auris AR Bank #381 (C. auris AR Bank #381) it was 0.98 μg/mL^−1; against C. auris AR Bank #381 (C. auris AR Bank # 381 (Table 2B)), 0.98 μg/mL^−1; against C. auris AR Bank #387 (C. auris AR Bank #387), 0.98 μg/mL^−1. The MIC against C. auris AR Bank #387 (C. auris AR Bank # 387 (Table 2B)) was 0.98 μg/mL^−1; in the experiment with C. auris AR Bank #382 (C. auris AR Bank #382), 0.98 μg/mL^−1; against C. auris AR Bank #382 (C. auris AR Bank # 382 (Table 2B)), 0.98 μg/mL^−1; against C. auris AR Bank #389 (C. auris AR Bank #389), 1.95 μg/mL^−1; with C. auris AR Bank #389 (C. auris AR Bank # 389 (Table 2B)), 1.95 μg/mL^−1; with C. auris AR Bank #383 (C. auris AR Bank #383), 1.95 μg/mL^−1. In addition, the MIC with C. auris AR Bank #383 (C. auris AR Bank # 383 (Table 2B)) is on record as 1.95 μg/mL^−1; against C. auris AR Bank #388 (C. auris AR Bank #388), 1.95 μg/mL^−1; in the experiment with C. auris AR Bank #388 (C. auris AR Bank # 388 (Table 2B)), 1.95 μg/mL^−1; in the experiment on C. auris AR Bank #385 (C. auris AR Bank #385), 1.95 μg/mL^−1; against C. auris AR Bank #385 (C. auris AR Bank # 385 (Table 2B)) it was 1.95 μg/mL^−1; in the experiment on C. auris AR Bank #386 (C. auris AR Bank #386), 0.98 μg/mL^−1. In addition, the MIC against C. auris AR Bank #386 (C. auris AR Bank # 386 (Table 2B)) is given as 0.98 μg/mL^−1.

On to `COc1ccc(NNC(=O)c2nc(F)ccc2F)cc1` [Compound 8f], for which the MIC came out at 31.3 µg/mL (≈ 112 µM) in experiment [1] (setting [2]); 0.98 µg/mL (≈ 3.51 µM) in experiment [1] (setting [3]); 0.98 µg/mL (≈ 3.51 µM) in the experiment on C. auris AR Bank #381 (setting [4]); 0.98 µg/mL (≈ 3.51 µM) with C. auris AR Bank #387 (setting [5]); 0.98 µg/mL (≈ 3.51 µM) in the experiment with C. auris AR Bank #382 (setting [6]); 0.98 µg/mL (≈ 3.51 µM) in the experiment with C. auris AR Bank #389 (setting [7]). The MIC was 1.95 µg/mL (≈ 6.98 µM) with C. auris AR Bank #383 (setting [8]), 0.98 µg/mL (≈ 3.51 µM) in the experiment on C. auris AR Bank #388 (setting [9]), 0.49 µg/mL (≈ 1.75 µM) with C. auris AR Bank #385 (setting [10]) and 0.98 µg/mL (≈ 3.51 µM) in the experiment with C. auris AR Bank #386 (setting [11]).

Regarding `O=C(NNc1ccc(Cl)cc1)c1cnccn1` [Compound 9e], the MIC was 3.9 μg/mL^−1 in experiment [1] (C. auris AR Bank #390 (L)); 3.9 μg/mL^−1 in [1] (setting [12]); 7.8 μg/mL^−1 in the experiment with C. auris AR Bank #381 (C. auris AR Bank #381); 13.6 μg/mL^−1 with C. auris AR Bank #387 (C. auris AR Bank #387); 13.6 μg/mL^−1 against C. auris AR Bank #382 (C. auris AR Bank #382); 7.8 μg/mL^−1 against C. auris AR Bank #389 (C. auris AR Bank #389). The MIC in the experiment on C. auris AR Bank #383 (C. auris AR Bank #383) is 3.9 μg/mL^−1; against C. auris AR Bank #388 (C. auris AR Bank #388), 7.8 μg/mL^−1; in the experiment with C. auris AR Bank #385 (C. auris AR Bank #385), 31.3 μg/mL^−1; against C. auris AR Bank #386 (C. auris AR Bank #386), 7.8 μg/mL^−1.
